From patent US20260207798A1, “CYCLIC PEPTIDES AS PET IMAGING AGENTS OF GRANZYME B” (priority 2022, published 2026) come the findings set out here.

Data set [1] concerns the target T1, Human Granzyme B (Homo sapiens, UniProt P10144). The experiment in a line: Granzyme B biochemical inhibition assay (fluorescence). To be noted: 8 nM granzyme B; values below 8 nM reported as <8 nM. The protocol:
Compounds to be tested as inhibitors were manually prepared in a 2-fold serial dilutions in DMSO, spanning 200 uM to 0.39 uM in a Labcyte Echo qualified low dead volume 384-well plate. Then an ECHO acoustic liquid handler was used to dispense 125 nL of each compound from 384-well plate into a PerkinElmer Proxiplate-384 Plus F assay plate. For the positive control of inhibitor, (S)-3-((3S,6S)-3-((2S,3S)-2-acetamido-3-methylpentanamido)-4-oxo-1,2,3,4,6,7-hexahydroazepino[3,2,1-hi]indole-6-carboxamido)-4-oxobutanoic acid (see C. A. Willoughby et al./Bioorg. Med. Chem. Lett. 12 (2002) 2197-2200 2199) was used at 2 uM assay concentration. For no inhibition control, DMSO was used. Each compound was run in duplicate.
Once the compounds were dispensed in the plates, enzyme mix and substrate mix were prepared. Enzyme mix was prepared by preparing a mixture of 300 uL granzyme B (final concentration 8 nM) and 10.8 mL of assay buffer (from Sigma kit). Substrate mix was prepared by combining 500 uL substrate (from Sigma kit) and 3 mL of assay buffer (from Sigma kit). Enzyme mixture was loaded on BioRaptr and 9.25 uL were added to each well of the assay plate containing compounds. The plate was incubated at room temperature under a metal gasket cover for 30 minutes. Subsequently, 3.125 uL of substrate mix were added to each well using the BioRaptr, reaching a final assay volume of 12.5 uL, and the plate was monitored using a Pherastar FS by 1 read per minute for 30 minutes in fluorescence mode, excitation wavelength is 400 nm and emission wavelength is 510 nm.
The data analysis was performed first in excel, where the slopes of the measured fluorescence from each sample were determined using MARS software from BMG LABTECH. These rates were then multiplied by 10,000 for visualization purposes. The rates, multiplied by 10,000, were normalized to 0% and 100% activity based on the average values of the samples with either 2 uM inhibitor (S)-3-((3S,6S)-3-((2S,3S)-2-acetamido-3-methylpentanamido)-4-oxo-1,2,3,4,6,7-hexahydroazepino[3,2,1-hi]indole-6-carboxamido)-4-oxobutanoic acid, or no inhibitor respectively. All samples were then normalized against these values using the formula={100−[(sample−100% inhib)/0% inhib]}*100 to achieve a normalized percent inhibition. Normalized percent inhibition versus concentration inhibitor was then plotted in Graphpad Prism version 9.0.0 and a variable slope (four parameters) fit was calculated for each inhibitor.

For data set [2], the target named is human Granzyme B (hGranzyme B) (Homo sapiens, UniProt P10144). The data set can be described thus: Surface plasmon resonance (SPR) binding kinetics to hGranzyme B. The settings on record: 25° C., 1:1 binding model, KD=kd/ka; read-out: Granzyme B SPR Kd. An outline of the steps: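 Biotinylated hGranzyme B captured on streptavidin chip (~1100 RU), reference-spot subtracted. Single-cycle kinetics at 25 °C in HBS-EP+ with 2% DMSO: five 3-fold peptide concentrations, 0.01–1 µM, 120 s association, 900 s dissociation. Fit to a 1:1 model for ka and kd, with KD = kd/ka.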
In general terms: Surface plasmon resonance follows binding to a sensor surface in real time, without labels.

For data set [3] the following is noted: rhesus monkey, in vivo.
Description: Healthy non-human primate: A 3 h dynamic PET/CT scan was performed in a healthy male rhesus monkey to determine whole body biodistribution and clearance properties in an additional species. Approximately 6 mCi of ^18F-labeled anti-granzyme-B peptide was intravenously injected in the animal. Attenuation correction was performed using low-dose CT scan. Regions of interests (ROI) were manually drawn over tissues of interest to determine mean standardized uptake value (SUVmean).
For data set [4], the target named is T1, Human Granzyme B. The data set is classed as in vivo. Also on record: Ten million human peripheral blood mononuclear cell (PBMC) were engrafted in immunocompromised NOG (NOD/Shi-scid/IL-2Rγ) mice; endogenous in cells; host or cells: human PBMC (donor-derived) engrafted in NOG mice. Here is the method:
Diseased model: Graft versus host disease (GvHD) model was selected to evaluate radiolabeled granzyme-B peptides due to presence of human granzyme-B after onset of disease. Ten million human peripheral blood mononuclear cell (PBMC) were engrafted in immunocompromised NOG (NOD/Shi-scid/IL-2Rγ) mice. Body weight was monitored routinely, once the mice started to lose weight (indication of onset of disease), PET/CT scans were performed. To determine target specificity, NOG mice without human PBMC were used as control. […] Mice were intravenously injected with approximately 150 uCi (35 Ci/mmol) of ^18F-labeled peptides and 45-minute whole body static PET/CT scans were performed 1 h after injection. Attenuation correction was performed using low-dose CT scan.

pIC50, pKd: −log10 of the molar value. Numbered stars: 1 amine (or outer) side, 2 acyl side, 3 side chain; on linkers, the order of the positions; unused ones are H or OH. Bridge positions count the residues as written; N and C are the ends. Square brackets hold non-standard residues; d marks the D form. Peptide text beside a SMILES is read from it. I, II: the chains in the order shown. * marks the point of attachment. X1 = O=C(O)CN1CCN(CC(=O)O)CC(Cc2ccc(NC(=S)*)cc2)N(CC(=O)O)CC1; Pro(trans-4-F) = O=C(O)[C@@H]1C[C@@H](F)CN1; X2 = O=C(CCOCCOCCC(=O)[*:2])[*:1]

T1 sequence (P10144 21-247): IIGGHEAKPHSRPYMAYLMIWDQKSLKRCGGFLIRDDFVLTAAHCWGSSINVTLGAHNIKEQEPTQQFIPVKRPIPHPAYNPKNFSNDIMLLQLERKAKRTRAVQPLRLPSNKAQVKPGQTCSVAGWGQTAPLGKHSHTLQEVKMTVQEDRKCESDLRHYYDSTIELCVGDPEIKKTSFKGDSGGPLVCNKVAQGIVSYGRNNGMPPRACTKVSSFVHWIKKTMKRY

Broadly, the pIC50 is the IC50 on a negative log10 scale, so that one unit is a factor of ten. Low readings indicate a high IC50, high ones a low IC50. In turn, `C[C@@H](O)[C@@H]1NC(=O)[C@H](CC(=O)O)NC(=O)[C@@H]2C[C@@H](F)CN2C(=O)[C@H](CO)NC(=O)[C@H](CCC(N)=O)NC(=O)[C@H](CC(=O)O)NC(=O)[C@H](CCC(=O)O)NC(=O)[C@H](Cc2ccccc2)NC(=O)[C@H](CC(N)=O)NC(=O)[C@H](Cc2ccccc2)NC(=O)CSC[C@@H](C(=O)NCC(=O)NCC(=O)N[C@@H](CCCCNC(=S)Nc2ccc(CC3CN(CC(=O)O)CCN(CC(=O)O)CCN3CC(=O)O)cc2)C(N)=O)NC(=O)[C@@H]2CCCN2C(=O)[C@H](CCC(N)=O)NC(=O)[C@H](Cc2c[nH]c3ccccc23)NC1=O` (single isomer, unassigned) [Compound 12a, *F.N.F.E.D.Q.S.Prot4F.D.T.W.Q.P.*C.G.G.K(NOTA-1).NH2] had a pIC50 in data set [1] of over 8.10.
Turning to `C[C@@H]1NC(=O)[C@H](CO)NC(=O)[C@H](CCC(N)=O)NC(=O)[C@H](CC(=O)O)NC(=O)[C@H](CCC(=O)O)NC(=O)[C@H](Cc2ccccc2)NC(=O)[C@H](CC(N)=O)NC(=O)[C@H](Cc2ccccc2)NC(=O)CSC[C@@H](C(=O)NCC(N)=O)NC(=O)[C@@H]2CCCN2C(=O)[C@H](CCC(N)=O)NC(=O)[C@H](Cc2c[nH]c3ccccc23)NC(=O)[C@H]([C@@H](C)O)NC(=O)[C@H](CC(=O)O)NC1=O` [Compound 1a, *F.N.F.E.D.Q.S.A.D.T.W.Q.P.*C.G.NH2] ({CH2CO}-FNFEDQSADTWQPCG-NH2; thioether N-14), the negative logarithm of the IC50 (pIC50) in data set [1] is over 8.10.
`C[C@@H]1NC(=O)[C@H](CO)NC(=O)[C@H](CCC(N)=O)NC(=O)[C@H](CC(=O)O)NC(=O)[C@H](CCC(=O)O)NC(=O)[C@H](Cc2ccccc2)NC(=O)[C@H](CC(N)=O)NC(=O)[C@H](Cc2ccccc2)NC(=O)CSC[C@@H](C(=O)NCC(=O)NCC(=O)N[C@@H](CCCCNC(=S)Nc2ccc(CC3CN(CC(=O)O)CCN(CC(=O)O)CCN3CC(=O)O)cc2)C(N)=O)NC(=O)[C@@H]2CCCN2C(=O)[C@H](CCC(N)=O)NC(=O)[C@H](Cc2c[nH]c3ccccc23)NC(=O)[C@H]([C@@H](C)O)NC(=O)[C@H](CC(=O)O)NC1=O` (stereo partly drawn) [Compound 2a, *F.N.F.E.D.Q.S.A.D.T.W.Q.P.*C.G.G.K(NOTA-1).NH2] ({CH2CO}-FNFEDQSADTWQPCGGK(X1)-NH2; thioether N-14) had a negative-log IC50 (pIC50) in data set [1] of over 8.10.
As usually defined, the pKd is the Kd on a negative log10 scale, so that one unit is a factor of ten. In the case of `C[C@@H]1NC(=O)[C@H](CO)NC(=O)[C@H](CCC(N)=O)NC(=O)[C@H](CC(=O)O)NC(=O)[C@H](CCC(=O)O)NC(=O)[C@H](Cc2ccccc2)NC(=O)[C@H](CC(N)=O)NC(=O)[C@H](Cc2ccccc2)NC(=O)CSC[C@@H](C(=O)NCC(=O)NCC(=O)N[C@@H](CCCCNC(=O)CCOCCOCCC(=O)NCCCC[C@H](NC(=O)CNC(=O)CNC(=O)[C@@H]2CSCC(=O)N[C@@H](Cc3ccccc3)C(=O)N[C@@H](CC(N)=O)C(=O)N[C@@H](Cc3ccccc3)C(=O)N[C@@H](CCC(=O)O)C(=O)N[C@@H](CC(=O)O)C(=O)N[C@@H](CCC(N)=O)C(=O)N[C@@H](CO)C(=O)N[C@@H](C)C(=O)N[C@@H](CC(=O)O)C(=O)N[C@@H]([C@@H](C)O)C(=O)N[C@@H](Cc3c[nH]c4ccccc34)C(=O)N[C@@H](CCC(N)=O)C(=O)N3CCC[C@H]3C(=O)N2)C(N)=O)C(N)=O)NC(=O)[C@@H]2CCCN2C(=O)[C@H](CCC(N)=O)NC(=O)[C@H](Cc2c[nH]c3ccccc23)NC(=O)[C@H]([C@@H](C)O)NC(=O)[C@H](CC(=O)O)NC1=O` [Compound 5a, *F.N.F.E.D.Q.S.A.D.T.W.Q.P.*C.G.G.K.NH2)-PEG2-(*F.N.F.E.D.Q.S.A.D.T.W.Q.P.*C.G.G.K.NH2)] (I: {CH2CO}-FNFEDQSADTWQPCGGK-NH2 / II: {CH2CO}-FNFEDQSADTWQPCGGK-NH2; linker I:17-II:17 via X2; thioether I:N-I:14, II:N-II:14), the negative logarithm of the Kd (pKd) in data set [2] is over 9.52. In data set [1], the negative-log IC50 (pIC50) is over 8.10.
`C[C@@H](O)[C@@H]1NC(=O)[C@H](CC(=O)O)NC(=O)[C@@H]2C[C@@H](F)CN2C(=O)[C@H](CO)NC(=O)[C@H](CCC(N)=O)NC(=O)[C@H](CC(=O)O)NC(=O)[C@H](CCC(=O)O)NC(=O)[C@H](Cc2ccccc2)NC(=O)[C@H](CC(N)=O)NC(=O)[C@H](Cc2ccccc2)NC(=O)CSC[C@@H](C(=O)NCC(=O)NCC(=O)N[C@@H](CCCCNC(=S)Nc2ccc(CC3CN(CC(=O)O)CCN(CC(=O)O)CCN3CC(=O)O)cc2)C(N)=O)NC(=O)[C@@H]2CCCN2C(=O)[C@H](CCC(N)=O)NC(=O)[C@H](Cc2c[nH]c3ccccc23)NC1=O` (stereo partly drawn) [Compound 19a, *F.N.F.E.D.Q.S.Prot4F.D.T.W.Q.P.*C.G.G.K(^68Ga-NOTA-1).NH2, metal not drawn]: in data set [3], the route of clearance entry was “primarily cleared through renal excretion”; the “tissues of highest uptake” value is “highest uptake observed in urine/urinary bladder and kidney”.
Consider `C[C@@H](O)[C@@H]1NC(=O)[C@H](CC(=O)O)NC(=O)[C@@H]2CCCN2C(=O)[C@H](CO)NC(=O)[C@H](CCC(N)=O)NC(=O)[C@H](CC(=O)O)NC(=O)[C@H](CCC(=O)O)NC(=O)[C@H](Cc2ccccc2)NC(=O)[C@H](CC(N)=O)NC(=O)[C@H](Cc2ccccc2)NC(=O)CSC[C@@H](C(=O)NCC(N)=O)NC(=O)[C@@H]2CCCN2C(=O)[C@H](CCC(N)=O)NC(=O)[C@H](Cc2c[nH]c3ccccc23)NC1=O` [Compound 25a, *F.N.F.E.D.Q.S.P.D.T.W.Q.P.*C.G.NH2] ({CH2CO}-FNFEDQSPDTWQPCG-NH2; thioether N-14), for which the pIC50 in data set [1] is over 8.10.
In data set [1], `C[C@@H](O)[C@@H]1NC(=O)[C@H](CC(=O)O)NC(=O)[C@@H]2C[C@@H](F)CN2C(=O)[C@H](CO)NC(=O)[C@H](CCC(N)=O)NC(=O)[C@H](CC(=O)O)NC(=O)[C@H](CCC(=O)O)NC(=O)[C@H](Cc2ccccc2)NC(=O)[C@H](CC(N)=O)NC(=O)[C@H](Cc2ccccc2)NC(=O)CSC[C@@H](C(=O)NCC(N)=O)NC(=O)[C@@H]2CCCN2C(=O)[C@H](CCC(N)=O)NC(=O)[C@H](Cc2c[nH]c3ccccc23)NC1=O` [Compound 38a, *F.N.F.E.D.Q.S.Prot4F.D.T.W.Q.P.*C.G.NH2] ({CH2CO}-FNFEDQS[Pro(trans-4-F)]DTWQPCG-NH2; thioether N-14) gave a pIC50 of over 8.10.
Consider “*F.N.F.E.D.Q.S.A.D.T.W.Q.P.*C.G.G.K(^18F-AlF-NOTA-1).NH2 [Compound 11a]”, for which the route of excretion result in data set [3] was “primarily excreted through renal route”. In data set [3] (iv), the blood pool clearance entry is “rapid blood pool clearance” and the uptake in kidneys entry is “high uptake in kidneys within first 20 minutes of injection”. In addition, the “uptake (SUVmean) in lung, liver and bone, GvHD model versus NOG control” value in data set [4] (18F-labeled peptides, i.v., mice, static PET/CT 1 h after injection) is “significantly higher uptake in lung, liver, and bone in GvHD model than NOG control”. Besides, in data set [4] (in vivo), the “kidney and bladder uptake difference” value is “No significant difference was observed between the kidney and bladder”; the “primary tissue of excretion” value is on record as “kidney was the primary tissue through which the peptide was excreted”.
